# Reference: patent publication US20030176314A1, “Compounds for the treatment of pain” (priority 2001, published 2003)
# Like-named read-outs stand apart in the source and are kept apart here.
# Assays:
# [1] = target: T1, rat NPFF2 receptor (Rattus norvegicus, UniProt Q9EQD2); experiment: Functional assay (agonist potency, intrinsic activity) at cloned rat NPFF2 receptor; assay type: cell-based; conditions: for rNPFF2 IA: Table 7, intrinsic activity; for Functional Activity rNPFF2 I.A. %: percent of maximum response elicited by neuropeptide FF; for EC50: read-out: Functional Activity rNPFF2 EC50; for classification as agonist or antagonist at the NPFF2 receptor: agonist: IA>15%, antagonist: Ki≦1.2 mM and IA≦15% at the rat cloned NPFF receptors
# T1 construct: The full-length NPFF2 was amplified from rat spinal cord cDNA; expressed in transfected cells; host or cells: not given
# T1 sequence (Q9EQD2 whole entry): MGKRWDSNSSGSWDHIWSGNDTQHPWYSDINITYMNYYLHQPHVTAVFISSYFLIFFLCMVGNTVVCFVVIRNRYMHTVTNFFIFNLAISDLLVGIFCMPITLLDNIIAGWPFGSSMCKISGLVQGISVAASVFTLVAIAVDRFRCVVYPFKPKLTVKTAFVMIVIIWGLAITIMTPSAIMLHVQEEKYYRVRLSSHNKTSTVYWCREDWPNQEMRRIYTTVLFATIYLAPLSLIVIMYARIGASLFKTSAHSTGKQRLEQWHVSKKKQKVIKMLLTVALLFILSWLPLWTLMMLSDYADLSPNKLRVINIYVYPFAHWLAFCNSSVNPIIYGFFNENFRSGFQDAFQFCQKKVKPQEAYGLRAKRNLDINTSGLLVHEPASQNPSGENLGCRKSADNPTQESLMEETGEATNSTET
# [2] = target: T2, serotonin (5HT) transporter (Rattus norvegicus, UniProt P31652); experiment: Binding at native serotonin transporter (5HT uptake); conditions: Table 8
# T2 construct: evaluated at native, tissue-derived transporters; from tissue
# T2 sequence (P31652 whole entry): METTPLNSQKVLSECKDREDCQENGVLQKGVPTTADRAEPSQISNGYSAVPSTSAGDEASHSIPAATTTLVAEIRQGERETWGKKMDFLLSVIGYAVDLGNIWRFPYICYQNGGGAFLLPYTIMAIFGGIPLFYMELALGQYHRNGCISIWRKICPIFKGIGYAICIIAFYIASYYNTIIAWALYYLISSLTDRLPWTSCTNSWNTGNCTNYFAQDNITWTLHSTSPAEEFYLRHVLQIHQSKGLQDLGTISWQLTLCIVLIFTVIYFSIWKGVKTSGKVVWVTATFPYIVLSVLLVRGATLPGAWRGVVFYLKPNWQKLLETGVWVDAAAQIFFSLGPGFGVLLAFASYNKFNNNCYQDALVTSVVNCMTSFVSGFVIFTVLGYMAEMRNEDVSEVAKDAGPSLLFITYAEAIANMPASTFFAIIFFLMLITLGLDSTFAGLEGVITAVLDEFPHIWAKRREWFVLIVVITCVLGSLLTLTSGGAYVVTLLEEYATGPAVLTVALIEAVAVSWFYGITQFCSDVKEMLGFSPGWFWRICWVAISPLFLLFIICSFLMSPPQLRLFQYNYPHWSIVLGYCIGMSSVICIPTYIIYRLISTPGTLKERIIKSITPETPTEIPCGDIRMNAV
# Protocol: (§1) Transporters: The binding properties of compounds were evaluated at native, tissue-derived transporters, namely serotonin (5HT) transporter and norepinephrine (NE) transporter, according to protocols described in Owens (1997), the disclosure of which is hereby incorporated by reference in its entirety into this application.
# (§2) The binding affinity (Ki) of these compounds were tested according to the protocols described herein at the following receptors; human α1A, α1B, α1D, α2A, α2B, and α2C adrenergic receptors; human Y1, Y2, Y4, and Y5 receptors; and N-Methyl-D-aspartic acid (NMDA) receptor channels. The binding interactions of these compounds were additionally tested at the norepinephrine (NE) transporter (NE uptake) and serotonin (5-hydroxytryptamine (5HT)) transporter (5HT uptake) according to protocols described herein
# [3] = target: T3, norepinephrine (NE) transporter (Rattus norvegicus, UniProt Q63380); experiment: Binding at native norepinephrine transporter (NE uptake); conditions: Table 8
# T3 construct: evaluated at native, tissue-derived transporters; from tissue
# T3 sequence (Q63380 1-617): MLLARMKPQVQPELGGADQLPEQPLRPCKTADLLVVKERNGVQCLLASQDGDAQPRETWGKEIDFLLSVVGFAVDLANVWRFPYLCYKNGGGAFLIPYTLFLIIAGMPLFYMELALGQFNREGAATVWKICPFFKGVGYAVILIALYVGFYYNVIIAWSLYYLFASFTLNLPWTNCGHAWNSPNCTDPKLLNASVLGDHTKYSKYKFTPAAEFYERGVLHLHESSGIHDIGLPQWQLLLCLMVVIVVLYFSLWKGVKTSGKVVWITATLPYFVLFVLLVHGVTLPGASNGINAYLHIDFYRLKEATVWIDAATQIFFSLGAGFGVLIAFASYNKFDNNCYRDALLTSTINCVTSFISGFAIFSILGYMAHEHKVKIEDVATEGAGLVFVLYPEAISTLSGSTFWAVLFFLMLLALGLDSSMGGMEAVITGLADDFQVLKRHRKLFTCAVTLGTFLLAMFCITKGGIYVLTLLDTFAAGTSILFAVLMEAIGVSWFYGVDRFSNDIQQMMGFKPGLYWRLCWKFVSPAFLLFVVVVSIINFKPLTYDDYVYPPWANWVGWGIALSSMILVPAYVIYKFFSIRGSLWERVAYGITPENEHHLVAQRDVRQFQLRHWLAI
# Protocol: as §1, §2
# [4] = target: T4, human α2B adrenergic receptor (Homo sapiens, UniProt P18089); experiment: Binding at human α2B adrenergic receptor; conditions: Table 8; read-out: hα2B Ki
# T4 construct: host or cells: LM(tk-) cells, line L-NGC-α2B
# T4 sequence (P18089 1-450): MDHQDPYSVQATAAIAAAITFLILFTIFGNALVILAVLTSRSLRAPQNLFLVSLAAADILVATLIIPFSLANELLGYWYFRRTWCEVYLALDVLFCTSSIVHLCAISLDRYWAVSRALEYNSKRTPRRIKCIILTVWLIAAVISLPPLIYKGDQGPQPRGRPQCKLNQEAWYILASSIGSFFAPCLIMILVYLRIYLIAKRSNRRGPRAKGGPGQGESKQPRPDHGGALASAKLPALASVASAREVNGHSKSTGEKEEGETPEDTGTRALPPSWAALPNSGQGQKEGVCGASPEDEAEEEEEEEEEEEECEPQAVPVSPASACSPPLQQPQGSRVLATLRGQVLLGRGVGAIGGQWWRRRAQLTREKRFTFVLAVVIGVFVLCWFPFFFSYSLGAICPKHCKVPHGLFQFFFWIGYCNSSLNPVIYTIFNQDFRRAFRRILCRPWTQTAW
# From the text: (§3) α2 Human Adrenergic Receptors: To determine the binding of compounds to human α2 receptors, LM(tk−) cell lines stably transfected with the genes encoding the α2A, α2B, and α2C receptors were used. The cell line expressing the α2A receptor is designated L-α2A, and was deposited on Nov. 6, 1992, under ATCC Accession No. CRL 11180. The cell line expressing the α2B receptor is designated L-NGC-α2B, and was deposited on Oct. 25, 1989, under ATCC Accession No. CRL 10275. The cell line expressing the α2C receptor is designated L-α2C, and was deposited on Nov. 6, 1992, under ATCC Accession No. CRL-11181. Cell lysates were prepared as described herin, and suspended in 25 mM glycyiglycine buffer (pH 7.6 at room temperature). Equilibrium competition binding assay were performed using […] (0.5 nM), and nonspecific binding was determined by incubation with 10 μM phentolamine. The bound radioligand was separated by filtration through GF/B filters using a cell harvester.
# as §2
# [5] = target: T5, human α2C adrenergic receptor (Homo sapiens, UniProt P18825); experiment: Binding at human α2C adrenergic receptor; conditions: Table 8; read-out: hα2C Ki
# T5 construct: host or cells: LM(tk-) cells, line L-α2C
# T5 sequence (P18825 1-462): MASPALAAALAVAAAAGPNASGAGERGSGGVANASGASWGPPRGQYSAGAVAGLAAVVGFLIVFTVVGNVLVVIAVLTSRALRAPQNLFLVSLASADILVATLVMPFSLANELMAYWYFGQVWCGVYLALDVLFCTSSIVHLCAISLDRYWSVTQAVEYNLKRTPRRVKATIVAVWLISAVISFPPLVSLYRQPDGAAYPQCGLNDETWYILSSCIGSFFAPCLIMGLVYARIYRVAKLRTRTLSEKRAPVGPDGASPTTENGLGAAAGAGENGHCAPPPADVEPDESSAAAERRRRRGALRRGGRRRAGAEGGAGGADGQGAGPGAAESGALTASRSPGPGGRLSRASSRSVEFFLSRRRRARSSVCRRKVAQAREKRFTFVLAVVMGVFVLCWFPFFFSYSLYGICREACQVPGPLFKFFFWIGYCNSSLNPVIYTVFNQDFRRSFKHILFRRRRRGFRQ
# From the text: as §3, §2
# [6] = target: T6, human α2A adrenergic receptor (Homo sapiens, UniProt P08913); experiment: Binding at human α2A adrenergic receptor; conditions: Table 8; read-out: hα2A Ki
# T6 construct: host or cells: LM(tk-) cells, line L-α2A
# T6 sequence (P08913 1-465): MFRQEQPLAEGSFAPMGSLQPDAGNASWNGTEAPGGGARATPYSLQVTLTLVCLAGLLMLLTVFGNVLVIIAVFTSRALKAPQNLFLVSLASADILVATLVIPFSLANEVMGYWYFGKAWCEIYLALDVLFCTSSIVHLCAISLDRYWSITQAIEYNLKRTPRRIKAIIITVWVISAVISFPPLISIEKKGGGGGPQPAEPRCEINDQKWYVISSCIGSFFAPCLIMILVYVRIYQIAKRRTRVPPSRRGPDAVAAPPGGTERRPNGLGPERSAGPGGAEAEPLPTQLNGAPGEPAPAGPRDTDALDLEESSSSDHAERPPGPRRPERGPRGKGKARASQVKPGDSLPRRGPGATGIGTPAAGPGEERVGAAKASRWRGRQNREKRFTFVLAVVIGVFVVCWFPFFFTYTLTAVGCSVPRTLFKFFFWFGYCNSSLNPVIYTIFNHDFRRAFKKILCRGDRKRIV
# From the text: as §3, §2
# [7] = target: T7, rat NPFF1 receptor (Rattus norvegicus, UniProt Q9EP86); experiment: Competition binding at cloned rat NPFF1 receptor ([125I]1DMeNPFF displacement); conditions: read-out: Ki Values rNPFF1
# T7 construct: expressed in transfected cells; host or cells: not given
# T7 sequence (Q9EP86 whole entry): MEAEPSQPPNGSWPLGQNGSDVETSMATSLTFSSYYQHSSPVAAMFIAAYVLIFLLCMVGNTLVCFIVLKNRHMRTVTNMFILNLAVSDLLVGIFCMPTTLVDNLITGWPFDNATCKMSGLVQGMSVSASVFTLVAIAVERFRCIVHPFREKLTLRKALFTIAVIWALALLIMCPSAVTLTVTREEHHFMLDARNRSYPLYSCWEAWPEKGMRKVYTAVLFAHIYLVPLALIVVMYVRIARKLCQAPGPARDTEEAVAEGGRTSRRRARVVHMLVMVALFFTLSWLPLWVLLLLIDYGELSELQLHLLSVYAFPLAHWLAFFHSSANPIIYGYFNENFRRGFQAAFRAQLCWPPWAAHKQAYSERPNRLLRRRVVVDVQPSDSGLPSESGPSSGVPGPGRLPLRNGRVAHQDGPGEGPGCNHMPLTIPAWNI
# Protocol: Transfected cells from culture flasks are scraped into 5 ml of 20 mM Tris-HCl, 5 mM EDTA, pH 7.5, and lysed by sonication. The cell lysates are centrifuged at 1000 rpm for 5 min. at 4° C., and the supernatant is centrifuged at 30,000×g for 20 min. at 4° C. […] Optimal membrane suspension dilutions, defined as the protein concentration required to bind less than 10% of the added radioligand, are […], unlabeled compounds, and binding buffer to a final volume of 250 μl. […]
# (§4) Competition assay: 50 pM radioligand, 10-12 points. Binding reaction mixtures are incubated for 2 hr at 25° C., and the reaction stopped by filtration through a double layer of GF filters treated with 0.1% polyethyleneimine, using a cell harvester. Wash buffer: 50 mM Tris-HCl, 0.1% BSA. Radioactivity may be measured by scintillation counting and data are analyzed by a computerized non-linear regression program. Non-specific binding is defined as the amount of radioactivity remaining after incubation of membrane protein in the presence of 1 μM final concentration […]. Protein concentration may be measured by the Bradford method using Bio-Rad Reagent, with bovine serum albumin as a standard.
# [8] = target: T7, rat NPFF1 receptor; experiment: Functional assay (agonist potency, intrinsic activity) at cloned rat NPFF1 receptor; assay type: cell-based; conditions: for Functional Activity rNPFF1 I.A. %: percent of maximum response elicited by neuropeptide FF; for EC50: read-out: Functional Activity rNPFF1 EC50; for classification as agonist or antagonist at the NPFF1 receptor: agonist: IA>15%, antagonist: Ki≦1.2 mM and IA≦15% at the rat cloned NPFF receptors
# [9] = target: T1, rat NPFF2 receptor; experiment: Competition binding at cloned rat NPFF2 receptor ([125I]1DMeNPFF displacement); conditions: read-out: Ki Values rNPFF2
# Protocol: Transfected cells from culture flasks are scraped into 5 ml of 20 mM Tris-HCl, 5 mM EDTA, pH 7.5, and lysed by sonication. The cell lysates are centrifuged at 1000 rpm for 5 min. at 4° C., and the supernatant is centrifuged at 30,000×g for 20 min. at 4° C. […] Optimal membrane suspension dilutions, defined as the protein concentration required to bind less than 10% of the added radioligand, […], unlabeled compounds, and binding buffer to a final volume of 250 μl. In equilibrium saturation binding assays membrane preparations are incubated in the presence of increasing concentrations of [^3H]-labeled compound.
# as §4
# [10] = test system: distension induced contractions of the rat bladder; conditions: drugs used therapeutically in humans, from publications; cited from earlier work
# [11] = Table 5, D-Arg- or D-Phe-containing compounds
Molecule,"Ki [7, 11]",Functional Activity rNPFF2 I.A. % ([1]; Table 5),EC50 ([1]; Table 5),Functional Activity rNPFF1 I.A. % ([8]; Table 5),EC50 ([8]; Table 5),"Ki [9, 11]",also measured
"Cc1nc(NC(=N)N)nc2ccc(Cl)cc12 [Compound 1013A, N-(6-chloro-4-methyl-2-quinazolinyl)guanidine]",–,–,–,–,–,–,rNPFF2 IA [1]: 52% NPFF; Ki [2]: 2020 nM; Ki [3]: 41200 nM
"CCc1ccc2c(C)nc(NC(=N)N)nc2c1 [Compound 1020A, N-(7-ethyl-4-methyl-2-quinazolinyl)guanidine]",–,–,–,–,–,–,rNPFF2 IA [1]: 90% NPFF; Ki [2]: 5590 nM; Ki [4]: 20900 nM; Ki [5]: 4130 nM; Ki [6]: 1170 nM; Ki [3]: 8020 nM
"Cc1ccc2c(C)nc(NC(=N)N)nc2c1 [Compound 3001A, N-(4,7-dimethyl-2-quinazolinyl)guanidine]",–,–,–,–,–,–,classification as agonist or antagonist at the NPFF2 receptor [1]: antagonists; Ki [2]: 22600 nM; classification as agonist or antagonist at the NPFF1 receptor [8]: antagonists; Ki [3]: 21400 nM
NCC(CC(=O)O)c1ccc(Cl)cc1 (stereo not drawn) [baclofen],–,–,–,–,–,–,activity in the DIRC model [10]: active
CN(C)CCCN1c2ccccc2CCc2ccccc21 [imipramine],–,–,–,–,–,–,activity in the DIRC model [10]: active
CNCCC=C1c2ccccc2CCc2ccccc21 [nortriptyline],–,–,–,–,–,–,activity in the DIRC model [10]: active
N1-[(1S)-2-Amino-1-benzyl-2-oxoethyl]-(2S)-{[amino(imino)methyl]amino}-2-[pentafluorophenyl)sulfonyl]amino}pentanamide [Compound 1024B],–,–,–,–,–,–,Ki ([7]; Table 4): 486 nM; Functional Activity rNPFF2 I.A. % ([1]; Table 4): 43%; EC50 ([1]; Table 4): > 3160 nM; Functional Activity rNPFF1 I.A. % ([8]; Table 4): 69%; EC50 ([8]; Table 4): 720 nM; Ki ([9]; Table 4): 5400 nM

# Further lines, with some results ahead:
"Ki [7, 11]",Functional Activity rNPFF2 I.A. % ([1]; Table 5),EC50 ([1]; Table 5),Functional Activity rNPFF1 I.A. % ([8]; Table 5),EC50 ([8]; Table 5),"Ki [9, 11]",Molecule,also measured
399 nM,86%,> 3160 nM,30%,477 nM,2690 nM,N=C(N)NCCC[C@H](NS(=O)(=O)c1ccc2ccccc2c1)C(=O)N[C@H](Cc1ccccc1)C(N)=O [Compound 1029B],–
46 nM,79%,378 nM,1%,> 10000 nM,2860 nM,N=C(N)NCCC[C@@H](NS(=O)(=O)c1cccc2ccccc12)C(=O)N[C@@H](Cc1ccccc1)C(N)=O [Compound 3001B],classification as agonist or antagonist at the NPFF2 receptor [1]: agonist; classification as agonist or antagonist at the NPFF1 receptor [8]: antagonist
1290 nM,61%,2760 nM,47%,644 nM,> 10000 nM,"N1-[(1R)-2-Amino-1-benzyl-2-oxoethyl]-(2S)-{[amino(imino)methyl]amino}-2-[2, 6-difluorophenyl)sulfonyl]amino]pentanamide [Compound 1032B]",–
2570 nM,24%,1570 nM,32%,856 nM,6030 nM,N1-[(1R)-2-Amino-1-benzyl-2-oxoethyl]-(2S)-{[amino(imino)methyl]amino}-2-[2-bromophenyl) sulfonyl]amino}pentanamide [Compound 1031B],–
251 nM,71%,1640 nM,35%,655 nM,6200 nM,N1-[(1S)-2-Amino-1-benzyl-2-oxoethyl]-(2R)-{[amino(imino)methyl]amino}-2-2-bromophenyl) sulfonyl]amino}pentanamide [Compound 1030B],–
